Consider seven compounds from ChEMBL document CHEMBL1201862, “PubChem BioAssay data set” (2004).

Holding throughout (test): NCI anticancer screen, dose series, 48 h
The test system of test [1] is LOX IMVI.
Test [2] has as its system M14.
In test [3] the test system is EKVX.
Test [4] deals with A549.
Test [5] relates to K562.
For test [6], the system named is U-251.
The test system of test [7] is SK-MEL-2.
Test [8] concerns RPMI-8226.
In test [9] the test system is UACC-62.
Test [10] deals with NCI-H460.
In test [11] the test system is SNB-75.
The subject of test [12] is SW-620.
Test [13] deals with SK-MEL-5.
In test [14] the test system is UACC-257.
For test [15], the system named is SN12C.
Test [16] concerns SNB-19.
Test [17] deals with SF-295.
Test [18] concerns NCI-H522.
In test [19] the test system is OVCAR-4.
In test [20] the test system is OVCAR-8.

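Compound exposure: 48 hours, 5 concentrations, 96-well plates. GI50 = concentration required for 50% inhibition of growth.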 The source made the active and inactive calls. Cut-off read from the data, not from the text of the source: active = GI50 up to about 1.1 µM and inactive = higher.

`OC1NC2CC3NC(O)C(O)NC3CC2NC1O` (stereo not given): the GI50 in test [1], in [2], in test [3], in [4], in test [5] and in test [6] was > 100 µM (inactive) each time. For the same compound, the GI50 in [7], in [8], in test [9], in [10], in test [11] and in test [12] was > 100 µM (inactive) in each case. The GI50 in test [13], in test [14], in [15], in test [16], in test [17] and in test [18] was > 100 µM (inactive) each time. Further, the GI50 in test [19] and in [20] was > 100 µM (inactive) in each case.
Take `CCOC(=O)CCc1cn2cc(Br)nc(OC)c2n1`: the GI50 in [1] was 90.2 µM (inactive); in test [2] it was > 100 µM (inactive); in test [3], > 100 µM (inactive); in [4], 62.4 µM (inactive); in test [5] it was 4.75 µM (inactive); in test [6] it was 65.6 µM (inactive). Further, the GI50 was > 100 µM (inactive) in test [7]; 44 µM (inactive) in test [8]; 36 µM (inactive) in [9]; > 100 µM (inactive) in test [10]; 26.1 µM (inactive) in test [11]; 16.2 µM (inactive) in test [12]. Besides, the GI50 in test [13] was 7.85 µM (inactive); in [14] it was > 100 µM (inactive); in [15] it was 75.9 µM (inactive); in [16] it was > 100 µM (inactive); in [17], 57.7 µM (inactive); in test [18] it was 81.8 µM (inactive). In addition, the GI50 in [19] is > 100 µM (inactive); in test [20], 59.2 µM (inactive).
Consider `O=c1[nH]c(=O)n(C2OC(CO)C(O)C2O)cc1OCc1ccccc1` (stereo not given), for which the GI50 in test [1] was > 31.6 µM (inactive); in test [2], > 100 µM (inactive); in test [3] it was > 100 µM (inactive); in [4], > 87.3 µM (inactive); in test [5] it was > 73.3 µM (inactive); in test [6] it was > 58.2 µM (inactive). The GI50 is > 100 µM (inactive) in test [7]; > 57.9 µM (inactive) in test [8]; > 100 µM (inactive) in test [9]; > 66.7 µM (inactive) in test [10]; > 100 µM (inactive) in [11]; > 57 µM (inactive) in test [12]. Besides, the GI50 in test [13], in test [14], in test [15], in [16], in [17] and in [18] was > 100 µM (inactive) in each case. For the same compound, the GI50 was > 100 µM (inactive) in test [19] and > 77.6 µM (inactive) in test [20].
For the compound `Nc1onc2c1Cc1c(noc1N)-c1ccccc1-2`, the GI50 in test [1] is 32.6 µM (inactive); in test [2] it was 84.3 µM (inactive); in test [3] it was 16.3 µM (inactive); in test [4] it was 71 µM (inactive); in [5], 41.3 µM (inactive); in test [6], 57.5 µM (inactive). The GI50 in [7] was 61.2 µM (inactive); in [8], 53.7 µM (inactive); in test [9] it was 27.4 µM (inactive); in [10], > 100 µM (inactive); in test [11], 33.2 µM (inactive); in [12], 57 µM (inactive). The GI50 in test [13] was 36.6 µM (inactive); in [14], 74.3 µM (inactive); in test [15] it was 85.3 µM (inactive); in test [16], > 100 µM (inactive); in test [17], 65.2 µM (inactive); in [18] it was 27.4 µM (inactive). Besides, the GI50 in test [19] is > 100 µM (inactive); in test [20], 59.6 µM (inactive).
For the compound `c1ccc(NN=C(c2ccccn2)c2ccccn2)nc1`, the GI50 in [1] is 0.269 µM (active); in test [2], 0.152 µM (active); in test [3], 0.335 µM (active); in [4], 0.384 µM (active); in [5], 0.463 µM (active); in test [6], 0.318 µM (active). Further, the GI50 in [7] is 0.49 µM (active); in test [8] it was 0.211 µM (active); in [9] it was 0.153 µM (active); in [10] it was 0.153 µM (active); in test [11], 2.56 µM (inactive); in [12] it was 0.141 µM (active). The GI50 in test [13] was 0.0893 µM (active); in test [14] it was 0.187 µM (active); in test [15], 0.142 µM (active); in [16], 0.598 µM (active); in [17], 0.423 µM (active); in test [18] it was < 0.01 µM (active). The GI50 in [19] was 0.213 µM (active); in test [20], 0.0384 µM (active).
As for `COc1ncc(C#CC(=O)c2ccccc2OC)c(OC)n1`, the GI50 in test [1] is 0.281 µM (active); in [2], 1.78 µM (inactive); in [3] it was 3.25 µM (inactive); in test [4] it was 5.98 µM (inactive); in [5], 0.39 µM (active); in test [6] it was 3.89 µM (inactive). The GI50 was 2.3 µM (inactive) in [7]; 2.61 µM (inactive) in [8]; 2.6 µM (inactive) in [9]; 6.34 µM (inactive) in [10]; 4.03 µM (inactive) in [11]; 0.78 µM (active) in [12]. Also, the GI50 was 2.06 µM (inactive) in [13]; 3.52 µM (inactive) in test [14]; 0.684 µM (active) in [15]; 15 µM (inactive) in [16]; 16.9 µM (inactive) in [17]; 0.738 µM (active) in [18]. The GI50 was 5.78 µM (inactive) in test [19] and 2.06 µM (inactive) in test [20].
Take `O=C1Nc2ccccc2N/C1=C\C(=O)c1ccccc1O`: the GI50 in test [1], in test [2], in test [3], in test [4], in [5] and in test [6] was > 100 µM (inactive) throughout. For the same compound, the GI50 in test [7], in test [8], in test [9], in test [10], in test [11] and in test [12] was > 100 µM (inactive) throughout. The GI50 in [13], in test [14], in [15], in test [16], in [17] and in test [18] was > 100 µM (inactive) in each case. Also, the GI50 in test [19] and in test [20] was > 100 µM (inactive) each time.
